Reference: patent US11760785B2, “Glucose transporter inhibitor-modified insulin for glucose-responsive insulin delivery” (NORTH CAROLINA STATE UNIVERSITY, priority 2017, dated 2023)
One block for each molecule: values may come before it.

Tests used:
[1] = tested on: glucose transporter (GLUT) on erythrocyte ghosts; experiment: binding to erythrocyte ghosts as the model of glucose transporter
Source text: In order to conjugate GLUT inhibitors to […], the GLUT inhibitors were first functionalized with an amino group to facilitate their conjugation to insulin (FIGS. 2 and 3). […] For inhibitor 2 (In2), an amino group was introduced through Michael addition reaction while maintaining the main structures unchanged. In order to conjugate insulin to forskolin and inhibitor 2, insulin was firstly reacted with Traut's reagent to introduce a thiol group and used directly for conjugating inhibitors, which was also beforehand reacted with SMCC crosslinker.

[2] = tested on: type 1 diabetic mouse model induced by STZ; experiment: in vivo therapeutic efficacy, blood glucose levels in type 1 diabetic mice; conditions: STZ type 1 diabetic mice; 300 IU/kg insulin conjugate, 150 IU/kg free insulin
Source text: PBS was used as a control. The dose was set to 300 IU/kg for insulin conjugate and 150 IU/kg for free insulin to avoid severe hypoglycemia. Error bars represent the S.D. of three independent experiments (n=3).
(§1) PBS was used as a control.

[3] = format: physicochemical
Source text: Herein, a new strategy utilizing the in situ living cells as the carrier for insulin was developed. […] In addition, the introduction of water-insoluble inhibitors onto insulin can greatly reduce its water solubility at pH 7.4. After subcutaneously injected, insulin conjugate formed a depot beneath the skin, which can slowly release insulin conjugate into the blood. Then, insulin conjugate reaches the GLUT on living cells, including adipose cells, muscle cells and blood cells, during blood circulation and consequently establishing an insulin pool. Of note, the GLUT pool on living cells can also buffer the high level of insulin in blood in the initial period post-injection and works as the reservoir of insulin to smooth the level of blood insulin. The adsorption of insulin-conjugate to cell membranes is in a dynamic balance with insulin conjugate in interstitial fluid and blood under a normoglycemic state. The insulin conjugate binding on living cell membranes can be released in a glucose-triggered manner under a hyperglycemic state because of the competitive binding from elevated glucose level.
In order to conjugate GLUT inhibitors to […], the GLUT inhibitors were first functionalized with an amino group to facilitate their conjugation to insulin (FIGS. 2 and 3). For forskolin, the introduction of the amino group and alkyl chains can enhance its binding affinity to GLUT. […]

diabetic mice [4] = experiment: multiple intraperitoneal glucose tolerance test; format: in vivo, mouse; conditions: subcutaneous injection, 400 IU/kg insulin conjugate
Source text: Insulin-F was subcutaneously injected. The dose was set to 400 IU/kg for insulin conjugate. Error bars represent the S.D. of three independent experiments (n=5).
as §1

diabetic mice [5] = conditions: mouse, in vivo, sc
Procedure: The in vivo therapeutic efficacy of insulin conjugates was evaluated in type 1 diabetic mouse model induced by STZ. The diabetic mice were assigned to four groups treated with insulin conjugates or native insulin. PBS was used as a control.

Molecule: C=C1[C@@H](C)[C@H]2[C@H](Cc3ccccc3)NC(=O)[C@]23OC(=O)/C=C/[C@H](O)CCC[C@@H](C)C/C=C/[C@H]3[C@@H]1O [cytochalasin B, reference compound]
inhibition of insulin-F binding on erythrocyte ghosts ([1]; competitor against insulin-F binding, indicates the binding is GLUT specific): could be inhibited

Molecule: insulin [free insulin]
time blood glucose level maintained within the normal range (<200 mg/dL) [2]: three

binding to erythrocyte ghost membrane ([1]; erythrocyte ghosts as the model of glucose transporter): able to bind to membrane
Molecule: insulin-forskolin: insulin conjugated via Traut's reagent thiol and SMCC crosslinker to amino-functionalized forskolin, a GLUT inhibitor
solubility at pH 7.4 [3]: insoluble
blood-glucose-regulating ability in multiple glucose tolerance test (diabetic mice [4]): long-lasting blood-glucose-regulating ability
long-lasting behavior by living imaging (diabetic mice [5]): long-lasting behavior of insulin-F was further confirmed
